Data taken from patent US9561228B2 (Celgene Avilomics Research, Inc., priority 2013, dated 2017).
pEC50, pIC50: −log10 of the molar value.

tested on: ERK1/2 phosphorylation of p90RSK in HT29 cells; experiment: pRSK MSD Assay in HT29 cells; type: cell-based; conditions: Homo sapiens, HT-29, read-out: ERK1/ERK2 PRSK MSD HT29 EC50
Method: The protocol below describes an assay to measure the kinase activity of ERK1/2 to phosphorylate a substrate, p90RSK, in the presence or absence of a test compound. This experiment was conducted using a Mesoscale Discovery plate. The day before the assay, HT29 cells were split and plated at 50,000 cells/well in complete growth media. After allowing cells to adhere, the media was removed and replaced with media containing 0.1% FBS and incubated overnight. Blank MSD plates (Mesoscale Discovery, Cat # L15XA3) were coated with 25 μl/well RSK capture antibody (BD Biosciences, Cat. #610226) and incubated at 4° C. overnight, then blocked with 150 μl of 3% BSA solution. The next day, the media from the cell culture plate was removed and replaced with 100 μl of media containing a test compound and incubated for 120 minutes at 37° C. The media was removed and replaced with 55 μl per well of lysis buffer with protease inhibitors (Roche Biosciences, Cat. #11836170001) and phosphatase inhibitors (Sigma-Aldrich, Cat. # P-0044 and P-5726), followed by incubation at 4° C. for 30 minutes. 50 μl of lysate was transferred to a blocked MSD plate, followed by incubation at room temperature for 2 hours under constant shaking. The plate was washed 3 times with MSD wash buffer (Mesoscale Discovery, Cat. # R617TX), and 25 μl/well phospho-RSK (pRSK) detection antibody (Cell Signaling Technology, Cat. #9335) was added with Sulfo-tagged detection antibody (Mesoscale Discovery, Cat. # R32AB-1) diluted in 1% BSA in MSD wash buffer. This mixture was incubated for 1 hour at room temperature under constant shaking. The plate was washed 3 times, and 150 μl 1×MSD read buffer was added, followed by signal detection in an MSD plate reader.

`C=CC(=O)N[C@H]1CCCC1Nc1nc(N[C@H]2CCCN(C(C)=O)C2)ncc1C(F)(F)F` (stereo in doubt) [Compound I-24, N-((1S,2S)-2-((2-(((S)-1-Acetylpiperidin-3-yl)amino)-5-(trifluoromethyl)pyrimidin-4-yl)amino)cyclopentyl)acrylamide] and `CC#CC(=O)N[C@@H]1CCCC[C@H]1Nc1nc(N[C@H]2CCCN(C(=O)CO)C2)ncc1C(F)(F)F` [Compound I-33, N-((1R,2R)-2-((2-(((S)-1-(2-Hydroxyacetyl)piperidin-3-yl)amino)-5-(trifluoromethyl)pyrimidin-4-yl)amino)cyclohexyl)but-2-ynamide] cannot be ordered by pEC50: < 6.00 for the first, < 6.00 for the second.

First: C=CC(=O)Nc1ccccc1Nc1nc(N[C@H]2CCCN(C(=O)OC)C2)ncc1C(F)(F)F [Compound I-17, (S)-Methyl 3-((4-((2-acrylamidophenyl)amino)-5-(trifluoromethyl)pyrimidin-2-yl)amino) piperidine-1-carboxylate]
Second: C=CC(=O)Nc1ccccc1Nc1nc(N[C@@H]2CCN(C(=O)OC)C2)ncc1C(F)(F)F [Compound I-61, (R)-Methyl 3-((4-((2-Acrylamidophenyl)amino)-5-(trifluoromethyl)pyrimidin-2-yl)amino)pyrrolidine-1-carboxylate]
The pEC50 of the first is higher: 6.30 to 7.00 for the first, < 6.00 for the second. The first is the more potent here.

`CC#CC(=O)Nc1ccccc1Nc1nc(N[C@H]2CCCN(C(=O)CO)C2)ncc1C(F)(F)F` [Compound I-29, (S)—N-(2-((2-((1-(2-Hydroxyacetyl)piperidin-3-yl)amino)-5-(trifluoromethyl)pyrimidin-4-yl)amino)phenyl)but-2-ynamide] and `C=CC(=O)Nc1ccccc1Nc1nc(N[C@@H]2CCN(C(=O)CO)C2)ncc1C(F)(F)F` [Compound I-62, (R)—N-(2-((2-((1-(2-Hydroxyacetyl)pyrrolidin-3-yl)amino)-5-(trifluoromethyl)pyrimidin-4-yl)amino)phenyl)acrylamide] cannot be ordered by pEC50: < 6.00 for the first, < 6.00 for the second.

Compared with `C=CS(=O)(=O)N[C@@H]1CCCC[C@H]1Nc1nc(N[C@H]2CCCN(C(=O)CO)C2)ncc1C(F)(F)F` [Compound I-36, N-((1R,2R)-2-((2-(((S)-1-(2-Hydroxyacetyl)piperidin-3-yl)amino)-5-(trifluoromethyl)pyrimidin-4-yl)amino)cyclohexyl)ethenesulfonamide], `C=C(C)S(=O)(=O)Nc1cc(F)ccc1Nc1nc(N[C@H]2CCCN(C(=O)CO)C2)ncc1C(F)(F)F` [Compound I-54, (S)—N-(5-Fluoro-2-((2-((1-(2-hydroxyacetyl)piperidin-3-yl)amino)-5-(trifluoromethyl)pyrimidin-4-yl)amino)phenyl)prop-1-ene-2-sulfonamide] is lower in pEC50: 6.00 to 6.30 for the first, < 6.00 for the second. The first is the more potent here.

`C=CC(=O)Nc1cc(C)ccc1Nc1nc(N[C@H]2CCCN(C(=O)c3ccccc3)C2)ncc1C(F)(F)F` [Compound I-44, (S)—N-(2-((2-((1-Benzoylpiperidin-3-yl)amino)-5-(trifluoromethyl)pyrimidin-4-yl)amino)-5-methylphenyl)acrylamide] and `C=CC(=O)Nc1ccccc1CNc1nc(N[C@H]2CCCN(C(=O)CO)C2)ncc1C(F)(F)F` [Compound I-45, (S)—N-(2-(((2-((1-(2-Hydroxyacetyl)piperidin-3-yl)amino)-5-(trifluoromethyl)pyrimidin-4-yl)amino)methyl)phenyl)acrylamide] cannot be ordered by pEC50: < 6.00 for the first, < 6.00 for the second.

First: C=C(C)S(=O)(=O)Nc1cc(C)ccc1Nc1nc(NC2CCC(=O)CC2)ncc1C(F)(F)F [Compound I-53, N-(5-Methyl-2-((2-((4-oxocyclohexyl)amino)-5-(trifluoromethyl)pyrimidin-4-yl)amino)phenyl)prop-1-ene-2-sulfonamide]
Second: C=CC(=O)Nc1ccccc1Nc1nc(N[C@H]2CCCN(C(=O)C(C)C)C2)ncc1Cl [Compound I-137, (S)—N-(2-((5-chloro-2-((1-isobutyrylpiperidin-3-yl)amino)pyrimidin-4-yl)amino)phenyl)acrylamide]
The pEC50 of the first is lower: < 6.00 for the first, 6.00 to 6.30 for the second.

Compared with `C=CC(=O)Nc1ccccc1Nc1nc(N[C@H]2CCCN(C(=O)C3CC3)C2)ncc1Cl` [Compound I-136, (S)—N-(2-((5-chloro-2-((1-(cyclopropanecarbonyl)piperidin-3-yl)amino)pyrimidin-4-yl)amino)phenyl)acrylamide], `C/C=C/C(=O)Nc1ccccc1Nc1nc(Nc2cc(C(N)=O)ccc2C)ncc1Cl` [Compound I-219, (E)-3-((4-((2-(but-2-enamido)phenyl)amino)-5-chloropyrimidin-2-yl)amino)-4-methylbenzamide] is lower in pEC50: 6.00 to 6.30 for the first, < 6.00 for the second. The first is the more potent here.

`C=CC(=O)N(C)c1ccccc1Nc1nc(Nc2cc(C(=O)NOC)ccc2C#N)ncc1Cl` [Compound I-197, 3-((5-chloro-4-((2-(N-methylacrylamido)phenyl)amino)pyrimidin-2-yl)amino)-4-cyano-N-methoxybenzamide] and `C=C(C)C(=O)Nc1ccccc1Nc1nc(Nc2cc(C(N)=O)ccc2C)ncc1Cl` [Compound I-217, 3-((5-chloro-4-((2-methacrylamidophenyl)amino)pyrimidin-2-yl)amino)-4-methylbenzamide] cannot be ordered by pEC50: < 6.00 for the first, < 6.00 for the second.

`Cc1ccc(C(N)=O)cc1Nc1ncc(Cl)c(Nc2ccccc2NC(=O)/C=C/CN(C)C)n1` [Compound I-218, (E)-3-((5-chloro-4-((2-(4-(dimethylamino)but-2-enamido)phenyl)amino)pyrimidin-2-yl)amino)-4-methylbenzamide] and `CC(C)=CC(=O)c1ccccc1Oc1nc(Nc2cc(C(N)=O)ccc2C)ncc1Cl` [Compound I-223, 3-((5-chloro-4-(2-(3-methylbut-2-enoyl)phenoxy)pyrimidin-2-yl)amino)-4-methylbenzamide] cannot be ordered by pEC50: < 6.00 for the first, < 6.00 for the second.

`CC(C)=CC(=O)c1ccccc1Oc1nc(Nc2ccc(F)cc2C)ncc1Cl` [Compound I-222, 1-(2-((5-chloro-2-((4-fluoro-2-methylphenyl)amino)pyrimidin-4-yl)oxy)phenyl)-3-methylbut-2-en-1-one] and `CC(C)=CC(=O)c1ccccc1Oc1nc(Nc2cc(C(N)=O)ccc2C)ncc1C(N)=O` [Compound I-271, 2-((5-carbamoyl-2-methylphenyl)amino)-4-(2-(3-methylbut-2-enoyl)phenoxy)pyrimidine-5-carboxamide] cannot be ordered by pEC50: < 6.00 for the first, < 6.00 for the second.

`C=CC(=O)Nc1cc(C)ccc1Nc1nc(Nc2cc(Cl)nc(OC)c2)ncc1Cl` [Compound I-244, N-(2-((5-chloro-2-((2-chloro-6-methoxypyridin-4-yl)amino)pyrimidin-4-yl)amino)-5-methylphenyl)acrylamide] and `C=CC(=O)Nc1cc(Cl)ccc1Nc1nc(Nc2cc(Cl)nc(OC)c2)ncc1Cl` [Compound I-247, N-(5-chloro-2-((5-chloro-2-((2-chloro-6-methoxypyridin-4-yl)amino)pyrimidin-4-yl)amino)phenyl)acrylamide] fall in the same range of pEC50: 6.30 to 7.00 for the first, 6.30 to 7.00 for the second.

With `CC(=O)N1CCC[C@H](Nc2ncc(C(F)(F)F)c(N[C@@H]3[C@H](C(N)=O)[C@H]4C=C[C@@H]3C4)n2)C1` [Compound I-309, (1R,2R,3S,4S)-3-((2-(((S)-1-acetylpiperidin-3-yl)amino)-5-(trifluoromethyl)pyrimidin-4-yl)amino)bicyclo[2.2.1]hept-5-ene-2-carboxamide] the pEC50 was < 6.00.

molecular target: T1, MEK1 activated ERK1 (Homo sapiens, UniProt P27361); experiment: Omnia continuous-read kinase assay for potency against MEK1 activated ERK1; type: biochemical; conditions: MEK1 activated ERK1, ATP at KM; read-out: ERK1 Omnia WT ATP KM IC50
T1 construct: purchased Millipore (Billerica, Mass.) 14-439-K
T1 sequence (P27361 whole entry): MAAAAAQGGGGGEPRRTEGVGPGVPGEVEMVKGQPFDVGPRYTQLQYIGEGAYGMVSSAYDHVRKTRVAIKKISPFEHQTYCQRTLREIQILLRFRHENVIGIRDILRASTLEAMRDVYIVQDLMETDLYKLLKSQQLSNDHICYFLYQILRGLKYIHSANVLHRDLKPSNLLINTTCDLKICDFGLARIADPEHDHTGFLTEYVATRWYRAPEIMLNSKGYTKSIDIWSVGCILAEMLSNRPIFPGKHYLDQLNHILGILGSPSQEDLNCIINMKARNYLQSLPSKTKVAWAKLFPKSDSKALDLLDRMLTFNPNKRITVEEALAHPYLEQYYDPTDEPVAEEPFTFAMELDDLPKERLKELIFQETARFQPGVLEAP
Text: Omnia Assay Protocol for Potency Assessment Against MEK1 Activated ERK1:
The protocol below describes continuous-read kinase assays to measure potency of compounds against activated ERK1 enzyme. The mechanics of the assay platform are best described by the vendor (Invitrogen, Carlsbad, Calif.) on their website at the following URL: invitrogen.com/site/us/en/home.html.
Briefly, a 1.25× stock of ERK1 enzyme (14-439-K) from Millipore (Billerica, Mass.), 5×ATP (AS001A) and ST17-Sox conjugated peptide substrate (KNZ1171C) were prepared in 1× kinase reaction buffer consisting of 20 mM Tris, pH 7.5, 5 mM MgCl2, 1 mM EGTA, 5 mM β-glycerophosphate, 5% glycerol (10× stock, KB002A) and 0.2 mM DTT. 10 μL of ATP/ST17-sox peptide substrate mix was combined with 0.5 μL volume of 100% DMSO and serially diluted compounds were prepared in 100% DMSO in a Corning (#3574) 384-well, white, non-binding surface microtiter plate (Corning, N.Y.). Kinase reactions were started with the addition of 40 μL of ERK1 solution and monitored every 71 seconds for 30-240 minutes at λex360/λem485 in a Synergy plate reader from BioTek (Winooski, Vt.). At the conclusion of each assay, progress curves from each well were examined for linear reaction kinetics and fit statistics (R^2, 95% confidence interval, absolute sum of squares). Initial velocity (0 minutes to ˜30+ minutes) from each reaction was determined from the slope of a plot of relative fluorescence units vs time (minutes or seconds) and then plotted against inhibitor concentration to estimate ^AppIC50 from log [Inhibitor] vs Response, Variable Slope model in GraphPad Prism from GraphPad Software (San Diego, Calif.).
[Reagent] used in optimized protocol:
[ERK1]=4 nM, [ATP]=50 μM, [ST17-Sox]=10 μM (ATP ^appKM 48 μM)
The results of this assay show the degree of inhibition of ERK activity, which is a direct measurement of inhibition of ERK activity. Results from this assay are reported in Table A under the column “ERK1 Omnia WT ATP KM IC50 (nM).”

`C=CC(=O)Nc1ccccc1Nc1nc(N[C@@H]2CCC[C@H](C(=O)NOC)C2)ncc1C(F)(F)F` (racemic) [Compound I-3, Rac-cis-3-((4-((2-acrylamidophenyl)amino)-5-(trifluoromethyl)pyrimidin-2-yl)amino)-N-methoxycyclohexanecarboxamide] was tested, and the pIC50 was 6.30 to 7.00.
